system: D54 ERlucT glycosylation luciferase reporter, luminescence, 24 h; assay: blockers of NLG process in reporter cells – D54 ERlucT cells, luminescence, cherry-picks, dose response (AID 624491);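 note: signal gain reflects blocked N-linked glycosylation of a luciferase reporter; actives raise luciferase signal so AC26 marks activators of the reporter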

**Q.** With `Cc1ccc(C(=O)N2C(CC(=O)Nc3ccc(Cl)cc3)C(=O)NC3CCCCC32)cc1` (configuration not stated) as the compound, how does the AC26 read?
**A.** The AC26 was 12600 nM.

**Q.** Which AC26 does the source give for `COc1ccc(/C=C2\SC(=S)N(CCC(=O)NC3CCCC3)C2=O)cc1OC` here?
**A.** Its AC26 is 6270 nM.

**Q.** How did the AC26 turn out when `COc1ccc(NC(=O)COC(=O)/C=C/C(=O)OCC(=O)Nc2ccc(OC)c(Cl)c2)cc1Cl` was run?
**A.** The AC26 was 16600 nM.

**Q.** With `O=C(c1cccc(Oc2ccccc2)c1)N1CCN(c2ccccn2)CC1` as the compound, how does the AC26 read?
**A.** The AC26 was 2190 nM.

**Q.** `O=C1CCCC2=C1C1(CCCCC1)N=C(Nc1nc3ccccc3o1)N2` was tested. Which AC26 did it give?
**A.** The AC26 was 5790 nM.

**Q.** For `O=S(=O)([N-]c1nc2ccccc2nc1-n1cc[n+](Cc2ccccc2)c1)c1ccc(Br)cc1`, which AC26 is on record?
**A.** The AC26 was 236 nM.

**Q.** For `Cc1[nH]nc2c1C(c1cccc(O)c1)C1=C(CC(C)(C)CC1=O)N2` (configuration not stated), which AC26 is on record?
**A.** The AC26 was 1870 nM.

**Q.** With `CCN(CC)CCNC(=O)c1cc2c(=O)n(C)c3ccccc3c2s1` as the compound, how does the AC26 read?
**A.** Its AC26 is 3940 nM.

**Q.** With `NC(=O)c1cccc(Nc2nc(C(N)CCc3ccccc3)cs2)n1` (configuration not stated) as the compound, how does the AC26 read?
**A.** Its AC26 is 8640 nM.

**Q.** `COc1ccc(C(=O)NCC(c2ccco2)N2CCc3ccccc32)cc1` (configuration not stated) was tested. Which AC26 did it give?
**A.** The AC26 was 2300 nM.

**Q.** With `Cc1ccc(C(=O)NCc2nnc(SCC(=O)NC(C)c3ccccc3)n2C)cc1` (configuration not stated) as the compound, how does the AC26 read?
**A.** Its AC26 is 3980 nM.

**Q.** Which AC26 does the source give for `COc1ccc2c(c1)OC[C@H]1[C@H]2N2C(=O)c3cc(Cl)ccc3NC(=O)[C@@]2(C)[C@H]1c1ccccc1` here?
**A.** Its AC26 is 1250 nM.

**Q.** How did the AC26 turn out when `O=C(N/N=C/c1c(-c2ccccc2)[nH]c2ccccc12)c1cccnc1` was run?
**A.** Its AC26 is 117 nM.

**Q.** Which AC26 does the source give for `COC(=O)c1ccc(S(=O)(=O)N2CCc3ccccc32)cc1` here?
**A.** The AC26 was 10600 nM.

**Q.** `CC(=O)c1c(C)[nH]c(C(=O)Nc2cccc(S(=O)(=O)N3CCCC3)c2)c1C` was tested. Which AC26 did it give?
**A.** The AC26 was 2610 nM.

**Q.** For `COc1ccc(OC(=O)N2C/C(=C/c3ccccc3)C(=O)/C(=C\c3ccccc3)C2)cc1`, which AC26 is on record?
**A.** Its AC26 is 299 nM.

**Q.** How did the AC26 turn out when `Cc1ccc(C(=O)c2cc([N+](=O)[O-])ccc2N2CCOCC2)cc1C` was run?
**A.** The AC26 was 168 nM.

**Q.** For `Cc1ccc(C(c2cc(Cl)c3cccnc3c2O)N2CCN(C)CC2)cc1` (configuration not stated), which AC26 is on record?
**A.** The AC26 was 1280 nM.

**Q.** How did the AC26 turn out when `Cc1cc(C)n(-c2nnc3n2N=C(c2c[nH]c4ccccc24)CS3)n1` was run?
**A.** Its AC26 is 3510 nM.

**Q.** How did the AC26 turn out when `CC(=O)Nc1cccc(-c2ccnc3c2CC(C)(C(=O)NCCC(F)(F)F)O3)c1` (configuration not stated) was run?
**A.** The AC26 was 4320 nM.

**Q.** How did the AC26 turn out when `COC(=O)C1=C(c2cc3ccccc3o2)C[C@@H]2CC[C@H]1N2C(=O)N1CCCCC1` was run?
**A.** Its AC26 is 14200 nM.

**Q.** `c1ccc2c(c1)C1=NCCN1c1ccccc1-2` was tested. Which AC26 did it give?
**A.** The AC26 was 544 nM.

**Q.** Which AC26 does the source give for `COc1ccc(CC(=O)N(Cc2ccccc2)c2ccc(C)cc2)cc1OC` here?
**A.** The AC26 was 716 nM.

**Q.** For `CCOc1ccc2nc(NCCNC(=O)Nc3cccc(C)c3)c(C#N)cc2c1`, which AC26 is on record?
**A.** The AC26 was 4010 nM.

**Q.** How did the AC26 turn out when `NC(=O)c1cccc(-c2coc3c(C(=O)NCc4ccccc4)cccc23)c1` was run?
**A.** Its AC26 is 4070 nM.

**Q.** Which AC26 does the source give for `Cc1cc2c(cc(C(=O)OCC(=O)NCc3cccs3)n2C(C)C)o1` here?
**A.** Its AC26 is 1740 nM.

**Q.** With `CCN(CC(=O)Nc1ccccc1-c1ccccc1)Cc1nc2ccccc2c(=O)[nH]1` as the compound, how does the AC26 read?
**A.** The AC26 was 1470 nM.

**Q.** Which AC26 does the source give for `COc1ccc(NC(=O)c2cc(S(=O)(=O)N(C)C)ccc2N2CCCC2)cc1Cl` here?
**A.** Its AC26 is 4800 nM.

**Q.** How did the AC26 turn out when `CN(C)CCNC(=O)c1cccc2nc3c(ccc4ccccc43)nc12` was run?
**A.** The AC26 was 719 nM.

**Q.** Which AC26 does the source give for `COc1ccc(NCC(=O)n2c(C)c(C)c3ccccc32)cc1` here?
**A.** Its AC26 is 3640 nM.

**Q.** With `Cc1cc(-n2c(SCC(=O)NCCC3=CCCCC3)nc3n[nH]c(C)c3c2=N)ccc1Cl` as the compound, how does the AC26 read?
**A.** The AC26 was 4030 nM.

**Q.** With `CCN(CC)S(=O)(=O)c1cc(NC(=O)Cn2ncc(Cl)c(Cl)c2=O)ccc1C` as the compound, how does the AC26 read?
**A.** The AC26 was 1030 nM.

**Q.** For `Cc1nc2c3cc(Cl)ccc3n(CCN3CCCCC3)c2s1`, which AC26 is on record?
**A.** Its AC26 is 896 nM.

**Q.** How did the AC26 turn out when `Cc1noc(C)c1COc1ccc(C(=O)NNC(=O)c2ccccc2F)cc1` was run?
**A.** The AC26 was 33.4 nM.

**Q.** With `COc1ccc(C2=NOC(C(=O)NCc3ccc(F)cc3)C2)cc1OC` (configuration not stated) as the compound, how does the AC26 read?
**A.** Its AC26 is 4460 nM.

**Q.** For `CC(C)CC(NC(=O)c1ccc(Cl)cc1)C(=O)OCC(=O)c1ccc2c(c1)NC(=O)CO2` (configuration not stated), which AC26 is on record?
**A.** The AC26 was 4090 nM.

**Q.** `COC(=O)c1ccc(C(=O)NC2CCCc3c2cnn3-c2ccccc2F)nc1` (configuration not stated) was tested. Which AC26 did it give?
**A.** The AC26 was 4140 nM.

**Q.** For `CC(C)Oc1ccc(C(=O)/C=C2/C(=O)Nc3ccccc32)cc1`, which AC26 is on record?
**A.** The AC26 was 3230 nM.

**Q.** For `COc1ccccc1C(=O)Nc1ccc2c(c1)nc(CCNC(=O)c1ccco1)n2C`, which AC26 is on record?
**A.** Its AC26 is 1550 nM.

**Q.** How did the AC26 turn out when `O=C(c1ccccc1-c1ccccc1)N1CCN(c2ccccn2)CC1` was run?
**A.** The AC26 was 2340 nM.

**Q.** For `Cc1ccc(NC(=O)c2cc(S(=O)(=O)N(C)C)ccc2N2CCCC2)cc1S(=O)(=O)N(C)C`, which AC26 is on record?
**A.** Its AC26 is 276 nM.

**Q.** Which AC26 does the source give for `O=C(Nc1cccc(NC(=O)c2cccs2)c1)c1ccc([N+](=O)[O-])o1` here?
**A.** The AC26 was 1820 nM.
